{"source": "paper PMC3265452", "about": "(PLoS Neglected Tropical Diseases, 2012)", "note": "Where a name gives a salt, the structure may show the parent alone."}
{"biological_target": "AaDOP2 (Aedes aegypti, UniProt H6D5H2)", "sequence (H6D5H2 1-476)": "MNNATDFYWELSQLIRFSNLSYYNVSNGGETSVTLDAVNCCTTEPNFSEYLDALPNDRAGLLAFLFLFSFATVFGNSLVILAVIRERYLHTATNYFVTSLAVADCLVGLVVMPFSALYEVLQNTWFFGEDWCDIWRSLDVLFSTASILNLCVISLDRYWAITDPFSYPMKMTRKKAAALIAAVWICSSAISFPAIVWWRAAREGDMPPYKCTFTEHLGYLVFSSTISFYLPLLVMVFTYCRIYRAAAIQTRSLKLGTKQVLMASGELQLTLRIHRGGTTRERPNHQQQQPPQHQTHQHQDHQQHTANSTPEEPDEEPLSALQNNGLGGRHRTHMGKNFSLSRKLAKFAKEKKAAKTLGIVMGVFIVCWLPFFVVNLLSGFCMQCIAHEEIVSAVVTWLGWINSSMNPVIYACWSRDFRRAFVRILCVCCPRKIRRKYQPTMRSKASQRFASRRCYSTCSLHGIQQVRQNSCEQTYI", "test": "AaDOP2 antagonist screen of the LOPAC1280 library (HEK-CRELuc-Aadop2 cells, luminescence)", "format": "cell-based", "conditions": "not given"}
{"molecule": "Cc1ccc(S(=O)(=O)NC(=O)NN2CCCCCC2)cc1", "note": "[Compound 1160, Tolazamide]", "Compound effect (percent receptor signaling in presence of test compound, relative lux units relative to the SCH23390 control)": 107}
{"molecule": "O=[N+]([O-])c1ccc(O[C@@H]2O[C@H](CO)[C@@H](O)[C@H](O)[C@H]2F)c([N+](=O)[O-])c1", "note": "[Compound 366, 2,4-Dinitrophenyl 2-fluoro-2-deoxy-beta-D-glucopyranoside]", "Compound effect (percent receptor signaling in presence of test compound, relative lux units relative to the SCH23390 control)": 75}
{"molecule": "(-)-Eseroline fumarate [Compound 504]", "Compound effect (percent receptor signaling in presence of test compound, relative lux units relative to the SCH23390 control)": 56}
{"molecule": "C=CCc1ccccc1OCC(O)CNC(C)C", "note": "(stereo not shown) [Compound 96, Alprenolol hydrochloride]", "Compound effect (percent receptor signaling in presence of test compound, relative lux units relative to the SCH23390 control)": 104}
{"molecule": "CCCn1cnc2c1c(=O)n(CCCCC(C)=O)c(=O)n2C", "note": "[Compound 998, Propentofylline]", "Compound effect (percent receptor signaling in presence of test compound, relative lux units relative to the SCH23390 control)": 87}
{"molecule": "NCCCNCCCCNCCCN", "note": "[Compound 1092, Spermine tetrahydrochloride]", "Compound effect (percent receptor signaling in presence of test compound, relative lux units relative to the SCH23390 control)": 88}
{"molecule": "COc1ccc(OC)c(C(O)C(C)N)c1", "note": "(stereo not shown) [Compound 789, Methoxamine hydrochloride]", "Compound effect (percent receptor signaling in presence of test compound, relative lux units relative to the SCH23390 control)": 92}
{"molecule": "Cl.Fc1ccc(C(OCCCc2c[nH]cn2)c2ccc(F)cc2)cc1", "note": "[Compound 678, 3-(1H-Imidazol-4-yl)propyl di(p-fluorophenyl)methyl ether hydrochloride]", "Compound effect (percent receptor signaling in presence of test compound, relative lux units relative to the SCH23390 control)": 52}
{"molecule": "CC(C)NC[C@H](O)COc1cccc2[nH]ccc12", "note": "[Compound 1015, S(-)-Pindolol]", "Compound effect (percent receptor signaling in presence of test compound, relative lux units relative to the SCH23390 control)": 87}
{"molecule": "C#C[C@]1(O)CC[C@H]2[C@@H]3CCC4=Cc5oncc5C[C@]4(C)[C@H]3CC[C@@]21C", "note": "[Compound 421, Danazol]", "Compound effect (percent receptor signaling in presence of test compound, relative lux units relative to the SCH23390 control)": 83}
{"molecule": "CSc1ccc(C(=O)c2[nH]c(=O)[nH]c2C)cc1", "note": "[Compound 473, Enoximone]", "Compound effect (percent receptor signaling in presence of test compound, relative lux units relative to the SCH23390 control)": 103}
{"molecule": "NC(=NCc1ccccc1)NC(=O)c1nc(Cl)c(N)nc1N", "note": "[Compound 166, Benzamil hydrochloride]", "Compound effect (percent receptor signaling in presence of test compound, relative lux units relative to the SCH23390 control)": 60}
{"molecule": "C[n+]1cc2c3c(ccc2c2ccc4cc5c(cc4c21)OCO5)OCO3", "note": "[Compound 1103, Sanguinarine chloride]", "Compound effect (percent receptor signaling in presence of test compound, relative lux units relative to the SCH23390 control)": 75}
{"molecule": "O=C(O)CCC/C=C\\C[C@@H]1[C@@H](/C=C/[C@H](O)C2Cc3ccccc3C2)[C@@H](F)C[C@@H]1O", "note": "[Compound 45, AL-8810]", "Compound effect (percent receptor signaling in presence of test compound, relative lux units relative to the SCH23390 control)": 102}
{"molecule": "NCCCCN", "note": "[Compound 970, Putrescine dihydrochloride]", "Compound effect (percent receptor signaling in presence of test compound, relative lux units relative to the SCH23390 control)": 88}
{"molecule": "Cc1c(OCC(F)(F)F)ccnc1C[S+]([O-])c1nc2ccccc2[nH]1", "note": "(stereo not shown) [Compound 711, Lansoprazole]", "Compound effect (percent receptor signaling in presence of test compound, relative lux units relative to the SCH23390 control)": 91}
{"molecule": "R(-)-Apocodeine hydrochloride [Compound 435]", "Compound effect (percent receptor signaling in presence of test compound, relative lux units relative to the SCH23390 control)": 98}
{"molecule": "COC(=O)N1CCN(C(=O)Cc2ccc(Cl)c(Cl)c2)C(CN2CCCC2)C1.O=C(O)/C=C/C(=O)O", "note": "(stereo not shown) [Compound 570, GR-89696 fumarate]", "Compound effect (percent receptor signaling in presence of test compound, relative lux units relative to the SCH23390 control)": 79}
{"molecule": "C[C@]12CC[C@@H]3c4ccc(O)cc4CC[C@H]3[C@@H]1CCC2=O", "note": "[Compound 500, Estrone]", "Compound effect (percent receptor signaling in presence of test compound, relative lux units relative to the SCH23390 control)": 91}
{"molecule": "Oc1cc2c(cc1O)[C@H]1c3ccccc3CN[C@@H]1CC2", "note": "(racemic) [Compound 398, Dihydrexidine hydrochloride]", "Compound effect (percent receptor signaling in presence of test compound, relative lux units relative to the SCH23390 control)": 110}
{"molecule": "COc1ccc(Cl)cc1C(=O)NCCc1ccc(S(=O)(=O)NC(=O)NC2CCCCC2)cc1", "note": "[Compound 546, Glibenclamide]", "Compound effect (percent receptor signaling in presence of test compound, relative lux units relative to the SCH23390 control)": 118}
{"molecule": "CC(C)NCC(O)COc1cccc2ccccc12.Cl", "note": "(racemic) [Compound 922, (±)-Propranolol hydrochloride]", "Compound effect (percent receptor signaling in presence of test compound, relative lux units relative to the SCH23390 control)": 102}
{"molecule": "COc1cc(Cc2cnc(N)nc2N)cc(OC)c1OC", "note": "[Compound 1208, Trimethoprim]", "Compound effect (percent receptor signaling in presence of test compound, relative lux units relative to the SCH23390 control)": 92}
{"molecule": "Cl.NC1(C(=O)O)CC1", "note": "[Compound 16, 1-Aminocyclopropanecarboxylic acid hydrochloride]", "Compound effect (percent receptor signaling in presence of test compound, relative lux units relative to the SCH23390 control)": 104}
{"molecule": "Cl.O=C(Cc1ccc(Cl)c(Cl)c1)N1CCCCC1CN1CCCC1", "note": "(stereo not shown) [Compound 1123, BRL 52537 hydrochloride]", "Compound effect (percent receptor signaling in presence of test compound, relative lux units relative to the SCH23390 control)": 97}
{"molecule": "CN1CC[C@@]23CCCC[C@@H]2[C@@H]1Cc1ccc(O)cc13.O=C(O)C(O)C(O)C(=O)O", "note": "[Compound 453, Dextrorphan D-tartrate]", "Compound effect (percent receptor signaling in presence of test compound, relative lux units relative to the SCH23390 control)": 107}
{"molecule": "CC(C)C[C@H](NC(=O)[C@@H](O)[C@H](N)Cc1ccccc1)C(=O)O", "note": "[Compound 190, Bestatin hydrochloride]", "Compound effect (percent receptor signaling in presence of test compound, relative lux units relative to the SCH23390 control)": 145}
{"molecule": "CCn1c(=O)c2[nH]c(-c3ccccc3)nc2n(CC)c1=O", "note": "[Compound 117, 1,3-Diethyl-8-phenylxanthine]", "Compound effect (percent receptor signaling in presence of test compound, relative lux units relative to the SCH23390 control)": 105}
{"molecule": "CNCCCC1c2ccccc2C=Cc2ccccc21", "note": "[Compound 986, Protriptyline hydrochloride]", "Compound effect (percent receptor signaling in presence of test compound, relative lux units relative to the SCH23390 control)": 18}
{"molecule": "Cc1nnc2ccc(-c3cccc(C(F)(F)F)c3)nn12", "note": "[Compound 754, 3-Methyl-6-(3-[trifluoromethyl]phenyl)-1,2,4-triazolo[4,3-b]pyridazine]", "Compound effect (percent receptor signaling in presence of test compound, relative lux units relative to the SCH23390 control)": 87}
{"molecule": "O=C(OCCN1CCCCC1)c1c[nH]c2ccccc12", "note": "[Compound 371, SB 203186]", "Compound effect (percent receptor signaling in presence of test compound, relative lux units relative to the SCH23390 control)": 84}
{"molecule": "CCCn1c(C)c(C(=O)c2cccc3ccccc23)c2ccccc21", "note": "[Compound 680, JWH-015]", "Compound effect (percent receptor signaling in presence of test compound, relative lux units relative to the SCH23390 control)": 73}
{"molecule": "O=C(O)CNC(=O)C(CS)Cc1ccccc1", "note": "(racemic) [Compound 1186, DL-Thiorphan]", "Compound effect (percent receptor signaling in presence of test compound, relative lux units relative to the SCH23390 control)": 107}
{"molecule": "Br.C[N+](C)(C)CCCCCNCC12CC3CC(CC(C3)C1)C2.[Br-]", "note": "[Compound 627, IEM-1460]", "Compound effect (percent receptor signaling in presence of test compound, relative lux units relative to the SCH23390 control)": 97}
{"molecule": "CC1=C(/C=C/C(C)=C/C=C/C(C)=C/C=C/C=C(C)/C=C/C=C(C)/C=C/C2=C(C)C(=O)[C@@H](O)CC2(C)C)C(C)(C)C[C@H](O)C1=O", "note": "[Compound 103, Astaxanthin]", "Compound effect (percent receptor signaling in presence of test compound, relative lux units relative to the SCH23390 control)": 106}
{"molecule": "Cc1cn([C@H]2C[C@H](N=[N+]=[N-])[C@@H](CO)O2)c(=O)[nH]c1=O", "note": "[Compound 34, 3'-Azido-3'-deoxythymidine]", "Compound effect (percent receptor signaling in presence of test compound, relative lux units relative to the SCH23390 control)": 114}
{"molecule": "CNC[C@H](O)c1cccc(O)c1", "note": "[Compound 956, Phenylephrine hydrochloride]", "Compound effect (percent receptor signaling in presence of test compound, relative lux units relative to the SCH23390 control)": 93}
{"molecule": "CCCN1C[C@H](CSC)C[C@@H]2c3cccc4[nH]cc(c34)C[C@H]21", "note": "[Compound 987, Pergolide methanesulfonate]", "Compound effect (percent receptor signaling in presence of test compound, relative lux units relative to the SCH23390 control)": 53}
{"molecule": "Cc1cn([C@H]2C=C[C@@H](CO)O2)c(=O)[nH]c1=O", "note": "[Compound 362, 2',3'-didehydro-3'-deoxythymidine]", "Compound effect (percent receptor signaling in presence of test compound, relative lux units relative to the SCH23390 control)": 99}
{"molecule": "CN1CCN(CC(=O)N2c3ccccc3C(=O)Nc3cccnc32)CC1", "note": "[Compound 969, Pirenzepine dihydrochloride]", "Compound effect (percent receptor signaling in presence of test compound, relative lux units relative to the SCH23390 control)": 114}
{"molecule": "Cc1nc2ccccn2c(=O)c1CCN1CCC(C(=O)c2ccc(F)cc2)CC1", "note": "[Compound 1013, Pirenperone]", "Compound effect (percent receptor signaling in presence of test compound, relative lux units relative to the SCH23390 control)": 10}
{"molecule": "CCc1c(C(=O)OC)ncc2[nH]c3cc(OC)c(OC)cc3c12", "note": "[Compound 503, Methyl 6,7-dimethoxy-4-ethyl-beta-carboline-3-carboxylate]", "Compound effect (percent receptor signaling in presence of test compound, relative lux units relative to the SCH23390 control)": 79}
{"biological_target": "AaDOP2 (Aedes aegypti, UniProt H6D5H2)", "test": "AaDOP2 antagonist screen of the LOPAC1280 library (HEK-CRELuc-Aadop2 cells, luminescence)", "format": "cell-based", "conditions": "10 µM compound, 300 nM dopamine, 2 hr; hit = compound effect <20", "units": {"Compound effect (percent receptor signaling in presence of test compound, relative lux units relative to the SCH23390 control)": "%"}}
{"molecule": "Nc1ncnc2c1c(-c1ccc(Oc3ccccc3)cc1)cn2C1CCCC1", "note": "[Compound 477, 7-Cyclopentyl-5-(4-phenoxy)phenyl-7H-pyrrolo[2,3-d]pyrimidin-4-ylamine]", "Compound effect (percent receptor signaling in presence of test compound, relative lux units relative to the SCH23390 control)": 76}
{"molecule": "CCCCCCCC/C=C\\CCCCCCCC(=O)NCCc1ccc(O)c(O)c1", "note": "[Compound 1098, N-Oleoyldopamine]", "Compound effect (percent receptor signaling in presence of test compound, relative lux units relative to the SCH23390 control)": 122}
{"molecule": "CCCN1CCC[C@@H](c2cccc(O)c2)C1.Cl", "note": "[Compound 1004, S(-)-3PPP hydrochloride]", "Compound effect (percent receptor signaling in presence of test compound, relative lux units relative to the SCH23390 control)": 89}
{"molecule": "C[C@]12CCC(=O)C=C1CC[C@@H]1[C@@H]2C(=O)C[C@@]2(C)[C@H]1CC[C@]2(O)C(=O)CO", "note": "[Compound 240, Cortisone]", "Compound effect (percent receptor signaling in presence of test compound, relative lux units relative to the SCH23390 control)": 86}
{"molecule": "Cl.NCC#Cc1ccccc1", "note": "[Compound 1006, 3-Phenylpropargylamine hydrochloride]", "Compound effect (percent receptor signaling in presence of test compound, relative lux units relative to the SCH23390 control)": 91}
{"molecule": "CCNC(=O)[C@H]1O[C@@H](n2cnc3c(NCc4ccccc4)ncnc32)[C@H](O)[C@@H]1O", "note": "[Compound 208, N6-Benzyl-5'-N-ethylcarboxamidoadenosine]", "Compound effect (percent receptor signaling in presence of test compound, relative lux units relative to the SCH23390 control)": 108}
{"molecule": "C[C@@](Cc1ccc(O)c(O)c1)(NN)C(=O)O", "note": "[Compound 335, S-(-)-Carbidopa]", "Compound effect (percent receptor signaling in presence of test compound, relative lux units relative to the SCH23390 control)": 112}
{"molecule": "Cortexolone maleate [Compound 1081]", "Compound effect (percent receptor signaling in presence of test compound, relative lux units relative to the SCH23390 control)": 83}
{"biological_target": "AaDOP2 (Aedes aegypti, UniProt H6D5H2)", "test": "AaDOP2 antagonist screen of the LOPAC1280 library (HEK-CRELuc-Aadop2 cells, luminescence)", "format": "cell-based", "conditions": "read-out: % of the SCH23390 effect (percent inhibition of receptor response relative to the SCH23390 control)", "units": {"inhibition at 10 µM": "%"}}
{"molecule": "CNCCCC1c2ccccc2C=Cc2ccccc21", "note": "[Compound 986, Protriptyline hydrochloride]", "inhibition at 10 µM": 82}
{"molecule": "Cc1nc2ccccn2c(=O)c1CCN1CCC(C(=O)c2ccc(F)cc2)CC1", "note": "[Compound 1013, Pirenperone]", "inhibition at 10 µM": 90}
